{
  "source": "patent US20140141090A1",
  "about": "“Pharmaceutical Composition Comprising Opioid Agonist And Sequestered Antagonist” (priority 2011, published 2014)",
  "origin": "cited, not measured here",
  "key": {"[1]": {"details": "after oral administration"}, "[2]": {"experiment": "not given", "remark": "listed apart in the source"}, "[3]": {"experiment": "not given", "remark": "listed apart in the source"}, "[4]": {"details": "in comparison to a 15 mg dose of hydrocodone"}},
  "note": "Counter-ions that a name gives are not always drawn. Like-named read-outs stand apart in the source and are kept apart here.",
  "data": [
    {"smiles": "O=C1CC[C@@]2(O)[C@H]3Cc4ccc(O)c5c4[C@@]2(CCN3CC2CC2)[C@H]1O5", "note": "[naltrexone]", "values": [
      {"measurement": "Oral bioavailability", "value": "5-40%"},
      {"measurement": "Time of absorption following oral administration", "value": "≤ 1", "unit": "h"},
      {"measurement": "Duration of action", "setting": "[1]", "value": "~24", "unit": "h"}
    ]},
    {"smiles": "CCOC(=O)C1(c2ccccc2)CCN(C)CC1", "note": "[meperidine]", "values": [
      {"measurement": "Equianalgesic dose", "setting": "[2]; in vivo", "value": 135.0, "unit": "mg"}
    ]},
    {"smiles": "COc1ccc2c3c1O[C@H]1[C@@H](O)C=C[C@H]4[C@@H](C2)N(C)CC[C@@]341", "note": "[codeine]", "values": [
      {"measurement": "Equianalgesic dose", "setting": "[2]; [4]", "value": 90.0, "unit": "mg"}
    ]},
    {"smiles": "C[C@H]1[C@H]2Cc3ccc(O)cc3[C@]1(C)CCN2CC1CC1", "note": "[cyclazocine]", "values": [
      {"measurement": "Duration of action", "setting": "[1]", "value": "~24", "unit": "h"}
    ]},
    {"smiles": "COc1ccc2c3c1O[C@H]1C(=O)CC[C@H]4[C@@H](C2)N(C)CC[C@]314", "note": "[hydrocodone]", "values": [
      {"measurement": "Equianalgesic dose", "setting": "[2]; [4]", "value": 15.0, "unit": "mg"}
    ]},
    {"smiles": "CN1CC[C@]23CCCC[C@H]2[C@H]1Cc1ccc(O)cc13", "note": "[levorphanol]", "values": [
      {"measurement": "Equianalgesic dose", "setting": "[2]; [4]", "value": 1.8, "unit": "mg"}
    ]},
    {"smiles": "COc1ccc2c3c1OC1C(=O)CC[C@@]4(O)[C@@H](C2)N(C)CC[C@]314", "note": "(stereo partly drawn) [oxycodone, 4,5-epoxy-14-hydroxy-3-methoxy-17-methylmorphinan-6-one]", "values": [
      {"measurement": "Equianalgesic dose", "setting": "[2]; [4]", "value": 13.5, "unit": "mg"}
    ]},
    {"smiles": "CN1CC[C@]23c4c5ccc(O)c4O[C@H]2[C@@H](O)C=C[C@H]3[C@H]1C5", "note": "[morphine]", "values": [
      {"measurement": "Equianalgesic dose", "setting": "[2]; in vivo", "value": 27.0, "unit": "mg"}
    ]},
    {"smiles": "O=C1CC[C@@]2(O)[C@H]3Cc4ccc(O)c5c4[C@@]2(CCN3CC2CC2)[C@H]1O5", "note": "[hydrochloride salt of naltrexone, naltrexone hydrochloride]", "values": [
      {"measurement": "Solubility in water", "setting": "[3]", "value": "up to 100 mg/cc"}
    ]},
    {"smiles": "CCC(=O)C(CC(C)N(C)C)(c1ccccc1)c1ccccc1", "note": "(stereo not drawn) [methadone]", "values": [
      {"measurement": "Equianalgesic dose", "setting": "[2]; [4]", "value": 9.0, "unit": "mg"}
    ]}
  ]
}
